Reference: patent US11815435B2, “Beta glucan immunopharmacodynamics” (HiberCell, Inc., priority 2017, dated 2023)

Test system: anti-β-glucan antibody (ABA IgG, ABA IgM)
Assay: Example 1: IgG and IgM ABA levels in a cancer subject on IVIG, IMPRIME PGG and pembrolizumab
Format: in vivo, human
Conditions: same subject and regimen
Protocol: Soluble β-glucan immunotherapy was administered to a subject diagnosed with glucaganoma. The subject's ABA level prior to immunotherapy treatment placed them in the Low-ABA subgroup, and therefore, their ABA level was boosted by administration of IVIG. GAMMAGARD at 100 mg/ml was intravenously administered prior to each treatment, which provided 161 μg ABA/ml. […] Each cycle was 3 weeks.

pembrolizumab [reference compound]
ABA IgG (cycle 1, day 2 EOI pembro): 18.2 µg/mL
ABA IgM (cycle 1, day 2 EOI pembro): 5.3 µg/mL
ABA IgG (cycle 2, day 1 EOI-pembro): 49.4 µg/mL
ABA IgM (cycle 2, day 1 EOI-pembro): 9.6 µg/mL
ABA IgG (cycle 3, day 1 EOI-pembro): 60.7 µg/mL
